In ChEMBL document CHEMBL1141483, “Design and synthesis of 1,3-diarylurea derivatives as selective cyclooxygenase (COX-2) inhibitors” (Bioorg Med Chem Lett, 2008):

These molecules were tested against T1, Prostaglandin G/H synthase 1 (Ovis aries, UniProt P05979).
T1 sequence (P05979 whole entry): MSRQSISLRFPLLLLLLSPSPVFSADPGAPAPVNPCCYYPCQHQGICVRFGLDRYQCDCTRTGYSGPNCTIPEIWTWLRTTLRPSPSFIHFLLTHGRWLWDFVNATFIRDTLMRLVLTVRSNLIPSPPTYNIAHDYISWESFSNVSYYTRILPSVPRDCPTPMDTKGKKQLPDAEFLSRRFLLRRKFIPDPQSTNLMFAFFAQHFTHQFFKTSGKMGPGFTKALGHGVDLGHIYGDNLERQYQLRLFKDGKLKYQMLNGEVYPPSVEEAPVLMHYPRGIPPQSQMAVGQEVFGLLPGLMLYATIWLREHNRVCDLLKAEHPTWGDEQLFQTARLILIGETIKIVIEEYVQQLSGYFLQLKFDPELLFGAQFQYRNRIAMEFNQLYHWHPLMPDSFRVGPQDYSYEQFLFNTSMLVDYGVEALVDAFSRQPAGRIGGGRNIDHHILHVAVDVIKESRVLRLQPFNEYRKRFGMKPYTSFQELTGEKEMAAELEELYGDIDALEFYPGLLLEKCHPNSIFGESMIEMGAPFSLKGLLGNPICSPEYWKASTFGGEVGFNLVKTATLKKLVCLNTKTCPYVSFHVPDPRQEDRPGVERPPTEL
Description: Inhibition of ovine COX1 by chemiluminescent assay

SMILES	IC50 [µM]
Cc1ccc(NC(=O)Nc2ccc(S(C)(=O)=O)cc2)cc1	12.5
CS(=O)(=O)c1ccc(NC(=O)Nc2ccc(F)cc2)cc1	21.8
CS(=O)(=O)c1ccc(NC(=O)Nc2ccc(Cl)cc2)cc1	21.5
COc1ccc(NC(=O)Nc2ccc(S(C)(=O)=O)cc2)cc1	22.4
CS(=O)(=O)c1ccc(NC(=O)Nc2ccccc2)cc1	9.2
